The target in one data set is hH3R. To be noted: cited from earlier work.
Another data set concerns hMAO B. Particulars: cited from earlier work.
Data set [1] deals with astrocyte cell line isolated from human cerebral cortex. The data set is described as follows: MTT cell viability test on human astrocytes. The class given is cell-based. To be noted: Astrocyte, human astrocytes, MTT. Here is the method:
(§1) The studies were performed on a commercially-available astrocyte cell line isolated from human cerebral cortex (ScienCell Research Laboratories, San Diego, CA, USA; Cat no. 1800). The cells (passage 7–8) were seeded into a 96-well plate at an amount of 10,000 cells/well and kept in accordance with the ScienCell Research Laboratories’ protocol, i.e., in astrocyte medium supplemented with 2% fetal bovine serum, 10% astrocyte growth supplement and 1% penicillin/streptomycin solution, in an atmosphere with 5% CO2 at 37 °C. The cells were allowed to grow for 24 h and then treated with increasing concentrations of test compounds (0.01–0.25 mg/mL) for 24 and 72 h. Astrocytes in the medium on each plate (regardless of the factors tested) were used as a positive control.
(§2) The viability of the astrocyte cell line was determined calorimetrically using 3-(4,5-dimethylthazol-2-yl)-2,5-diphenyltetrazolium bromide (MTT; Sigma-Aldrich Chemical Co. Ltd., Saint Louis, MO, USA) as described earlier. […] After the incubation time (24 or 72 h) with examined drugs, 50 μL MTT solution (1 mg/mL) was added to each well of the plate for another 4 h. The method is based on the reduction of a yellow tetrazolium salt (MTT) into purple formazan crystals by mitochondrial succinate-tetrazolium reductase system which is metabolically active in viable cells. At the end of the experiment, the cells were treated with 100 μL dimethyl sulphoxide, which enabled the release of the reaction product.
(§3) The absorbance was measured at 570 nm using a BioTek EL×800 microplate reader (BioTek, Winooski, Vermont, USA) and results were expressed as a percentage of the absorbance measured in control cells. The obtained values were plotted against different concentrations of each compound to calculate the viability inhibition concentration at 50% (IC50) using GraphPad Prism 6.07 (GraphPad Software, Inc., San Diego, CA, USA). The experiment was repeated in quadruplicate.
(§4) For the cytotoxicity assessment in the MTT assays, each test drug was used at 8 concentrations (range: 0.01–0.25 mg/mL).

Data set [2] is described as follows: MTT cell viability test on human astrocytes. The class given is cell-based. To be noted: human; 24 h; at 0.15 and 0.25 mg/mL; read-out: decline in cell viability in comparison to the control level. As for the experimental part:
as §1, §2, §3, §4

Another data set addresses T1, MAO B (Homo sapiens, UniProt P27338).
T1 sequence (P27338 1-520): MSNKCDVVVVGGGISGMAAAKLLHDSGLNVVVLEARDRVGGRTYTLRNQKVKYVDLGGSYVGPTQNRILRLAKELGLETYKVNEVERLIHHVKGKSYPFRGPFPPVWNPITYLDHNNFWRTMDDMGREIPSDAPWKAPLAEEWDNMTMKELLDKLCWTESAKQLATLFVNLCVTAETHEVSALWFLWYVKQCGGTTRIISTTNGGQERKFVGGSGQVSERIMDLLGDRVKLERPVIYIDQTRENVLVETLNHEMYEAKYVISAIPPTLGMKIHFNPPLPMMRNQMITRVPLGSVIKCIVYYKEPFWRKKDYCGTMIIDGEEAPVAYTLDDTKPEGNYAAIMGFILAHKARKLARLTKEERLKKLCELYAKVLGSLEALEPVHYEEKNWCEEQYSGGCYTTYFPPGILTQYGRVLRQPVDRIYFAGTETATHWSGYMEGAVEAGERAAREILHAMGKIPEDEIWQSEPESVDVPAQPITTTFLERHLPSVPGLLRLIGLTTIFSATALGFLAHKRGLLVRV
The data set is described as follows: reversibility of MAO B inhibition (reactivation by excess p-tyramine, with/without preincubation). The data set is classed as biochemical. To be noted: inhibitor at IC80; for reversibility of MAO B inhibition: excess p-tyramine 200 µM. As for the experimental part:
The reversibility of the MAO inhibition was tested as described in [6, 7]. […] Two variants of experiment were performed. […] After 22 min, the concentration of the substrate was increased to 200 µM and the signal was measured for 5 h.

Data set [3] concerns the target T2, human MAO B (hMAO B) (Homo sapiens, UniProt P27338).
T2 sequence (P27338 1-520): T1 sequence (P27338 1-520)
The data set is described as follows: fluorometric MAO assay (p-tyramine substrate). The data set is classed as biochemical. Particulars: for IC50: fluorometric MAO assay, mean ± SEM of 2–4 independent experiments; for inhibition at 1 µM: mean of two independent experiments, read-out: hMAO B % of Inh. As for the experimental part: The precise method was described in [6]. First, compounds 4–32 were screened for hMAO B inhibitory activity at 1 μM concentration by the fluorometric method. Para-tyramine (200 μM) was used as a substrate for the enzyme and safinamide (1 μM) was used as a reference compound. […] Each experiment was performed in duplicate.
All compounds were first screened for hMAO B inhibitory activity at the concentration of 1 μM. […] Based on the results, we selected compounds 9 and 13 for further analysis.

In data set [4] the target is T3, human histamine H3 receptor (hH3R) (Homo sapiens, UniProt Q9Y5N1). The data set is described as follows: [3H]Nα-methylhistamine radioligand binding assay in CHO-K1 cells stably expressing hH3R. Further details: expressed in transfected cells; host or cells: CHO-K1. To be noted: CHO-K1 cells; [3H]Nα-methylhistamine; mean ± SEM of three independent experiments; read-out: hH3R Ki [nM] ± SEM. As for the experimental part:
(§5) Affinity to hH3R stably expressed in CHO-K1 [6] or HEK293 [11] cells was evaluated in a radioligand binding assay as described previously. Briefly, 10 mM stock solutions of the test compounds in DMSO were prepared. Each compound was tested at eight concentrations ranging from 10^−5 to 10^−12 M (final concentration). All assays were carried out in duplicate. […] The radioactivity was counted in MicroBeta 2 [6] or MicroBeta Trilux counter (PerkinElmer). Data were fitted to a one-site curve-fitting equation with Prism 6 (GraphPad Software, San Diego, CA, USA) and Ki values were calculated from IC50 values (from at least three experiments performed in duplicates) according to the Cheng−Prusoff equation [12].
(§6) Affinity for hH3R was evaluated in a radioligand binding assay using [^3H]N^α-methylhistamine as radioligand in CHO K1 or HEK293 cells stably expressing hH3R as described previously. […] Then, those with at least 50% inhibition for hH3R were selected for further testing (Ki evaluation). […] Compounds were tested in the binding assay in HEK293 cells.

Data set [5] can be described thus: parallel artificial membrane permeability assay (PAMPA). The class given is in vitro ADME. To be noted: for Pe (×10^−6cm/s) ± SD: PAMPA, triplicate, breakpoint for permeable compounds Pe ≥ 1.5×10^−6 cm/s.
Data set [6] deals with T2, human MAO B (hMAO B). Briefly: modality of hMAO B inhibition (Michaelis-Menten / Lineweaver-Burk). The data set is classed as biochemical. Particulars: for Lines on LB plot: Lineweaver–Burk double-reciprocal plot; for app. KM / app. Vmax / app. Vmax/app. KM: inhibitor at IC20, IC50, IC80, p-tyramine 0.05–2.0 mM. Here is the method:
Modality of hMAO B inhibition was evaluated for compounds 9 and 13 and the reference safinamide according to the method described previously. Three concentrations of inhibitors, corresponding to their IC20, IC50 and IC80 values, were used. Each experiment was performed in triplicate. KM and Vmax values were calculated from Michaelis–Menten curves by nonlinear regression from the substrate. Lineweaver–Burk plots were calculated using linear regression in GraphPad Prism 6.07 (GraphPad Software, San Diego, CA, USA).
For testing modality of enzyme inhibition, we used three concentrations of inhibitors that corresponded to their IC20, IC50 and IC80 values. Substrate (p-tyramine) was used at concentrations: 0.05, 0.1, 0.5, 1.0, 1.5 and 2.0 mM.

Data set [7] addresses T3, human histamine H3 receptor (hH3R). Further details: expressed in transfected cells. Particulars: HEK293 cells; read-out: hH3R Ki [nM] [95%CI]; cited from earlier work.
Data set [8] shares this target. The data set is described as follows: [3H]Nα-methylhistamine radioligand binding assay in HEK293 cells stably expressing hH3R. Further details: expressed in transfected cells. To be noted: mean within 95% CI of three independent experiments. As for the experimental part: as §5, §6

Consider 14 molecules from PMC9607599, “Dual Targeting Ligands—Histamine H3 Receptor Ligands with Monoamine Oxidase B Inhibitory Activity—In Vitro and In Vivo Evaluation” (Pharmaceutics, 2022).

Several values for one entry are separate records, joined by “and”; a condition that tells them apart may be missing. Identical values can stand only once. Counter-ions that a name gives are not always drawn. Like-named read-outs stand apart in the source and are kept apart here. Some results are limits rather than exact numbers.

T3 sequence (Q9Y5N1 whole entry): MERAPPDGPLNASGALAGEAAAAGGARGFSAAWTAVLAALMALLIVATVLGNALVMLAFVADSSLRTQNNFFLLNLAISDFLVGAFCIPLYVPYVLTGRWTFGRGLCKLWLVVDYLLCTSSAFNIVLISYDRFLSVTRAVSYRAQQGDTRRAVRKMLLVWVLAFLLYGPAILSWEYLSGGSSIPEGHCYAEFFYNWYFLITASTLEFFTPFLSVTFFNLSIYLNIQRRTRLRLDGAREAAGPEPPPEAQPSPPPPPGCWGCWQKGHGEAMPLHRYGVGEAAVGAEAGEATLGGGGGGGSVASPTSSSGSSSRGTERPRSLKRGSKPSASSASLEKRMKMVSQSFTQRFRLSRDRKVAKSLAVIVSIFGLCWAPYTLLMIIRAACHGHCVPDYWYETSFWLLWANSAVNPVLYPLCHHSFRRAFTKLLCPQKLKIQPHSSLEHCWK

Take `O=C1/C(=C/c2ccc(OCCCN3CCCCC3)cc2)Cc2cc(OCc3ccc(Br)cc3)ccc21` [Compound 1]: the Ki on hH3R is 0.0065 µM.

For the molecule `CCC(C)(C)c1ccc(OCCCN2CCCC2)cc1` [Compound 3], at hH3R, the inhibition constant Ki is 0.063 µM. Moreover, the IC50 in the data set with hMAO B was 0.0045 µM.

As for `CCCN(CCC)CCCOc1ccc(C(C)(C)C)cc1.O=C(O)C(=O)O` [Compound 9, 3-(4-(tert-Butyl)phenoxy)-N,N-dipropylpropan-1-amine hydrogen oxalate], the melting point is 139 to 142 °C. The half-maximal inhibitory concentration (IC50) in data set [1] (24 h incubation, read-out: IC50 24 h) was 144 µM and 55 µg/mL. Also, in data set [1] (72 h incubation, read-out: IC50 72 h), the IC50 is 123 µM and 47 µg/mL. The viability at 24 h in data set [2] is greater than 95%. Also, on MAO B, the “effect of 30 min preincubation on inhibition (preincubated vs non-preincubated)” value is recorded as “did not show differences between the variants” and the “reversibility of MAO B inhibition” value is listed as “reversible inhibition”. Also, half-maximal inhibition against human MAO B (hMAO B) [3] (IC50) was put at 0.002 µM. Also, in data set [4], the inhibition constant (Ki) was 323 ± 73 nM. Further, in data set [5], the “permeability in PAMPA, in words” value is reported as “not able to cross the artificial membrane” and the “Pe (×10^−6cm/s) ± SD” value is “^---- -- ^c”. On human MAO B (hMAO B) [6], the “Affinity (free enzyme vs enzyme-substrate complex)” value is reported as “Free enzyme ≈ enzyme-substrate complex”; the “Mode of inhibition from kinetic values and LB plot” value is “noncompetitive inhibition”; the “Lines on LB plot” value is “Lines intersect to the left of y-axis directly on x-axis”; the “app. KM” value was “No effect ^a”. At human MAO B (hMAO B) [6], the “app. Vmax” value is “↓ curvilinearly with ↑ [I]” and the “app. Vmax/app. KM” value was “↓ curvilinearly with ↑ [I]”.

Regarding `CC1CCCCN1CCCOc1ccc(C(C)(C)C)cc1` (stereo not drawn) [Compound 10, 1-(3-(4-(tert-Butyl)phenoxy)propyl)-2-methylpiperidine hydrogen oxalate], in data set [7], the inhibition constant Ki was less than 100 nM.

Molecule `CC(=O)c1ccc(OCCCN2CCCCC2)cc1.O=C(O)C(=O)O` [Compound 18, 1-(4-(3-(Piperidin-1-yl)propoxy)phenyl)ethan-1-one hydrogen oxalate] had a melting point of 157 to 159 °C. The inhibition at 1 µM at human MAO B (hMAO B) [3] is 19%. Further, the Ki in data set [8] is 15 nM.

`CC(C)c1ccc(OCCCN2CCCCC2)cc1.O=C(O)C(=O)O` [Compound 19, 1-(3-(4-Isopropylphenoxy)propyl)piperidine hydrogen oxalate] came in with a melting point of 112 to 115 °C. The midpoint of inhibition at human MAO B (hMAO B) [3], the IC50, lay at 0.021 ± 0.003 µM. This molecule displayed a Ki in data set [8] of 52 nM.

The molecule `CCc1ccc(OCCCN2CCCCC2)cc1.O=C(O)C(=O)O` [Compound 20, 1-(3-(4-Ethylphenoxy)propyl)piperidine hydrogen oxalate] had a melting point of 144 to 146 °C. The IC50 against human MAO B (hMAO B) [3] was determined as 0.07 ± 0.002 µM. Moreover, in [8], the inhibition constant (Ki) is 62 nM and 61 nM.

On to `Cc1ccc(OCCCN2CCCCC2)cc1.O=C(O)C(=O)O` [Compound 21, 1-(3-(p-Tolyloxy)propyl)piperidine hydrogen oxalate], for which the melting point lay within 160 to 162 °C. On human MAO B (hMAO B) [3], this molecule returned an IC50 of 0.755 ± 0.106 µM. For the same molecule, affinity in data set [8] was put at a Ki of 43 nM.

For the molecule `Fc1ccc(OCCCN2CCCCC2)cc1.O=C(O)C(=O)O` [Compound 22, 1-(3-(4-Fluorophenoxy)propyl)piperidine hydrogen oxalate], the melting point is 132 to 136 °C. The inhibition at 1 µM at human MAO B (hMAO B) [3] was 29%. Besides, the Ki in [8] was > 80 nM and 93 nM.

For the molecule `Clc1ccc(OCCCN2CCCCC2)cc1.O=C(O)C(=O)O` [Compound 23, 1-(3-(4-chlorophenoxy)propyl)piperidine hydrogen oxalate], the melting point fell in the range of 158 to 160 °C. The IC50 against human MAO B (hMAO B) [3] was 1.06 ± 0.037 µM. The inhibition constant (Ki) in [8] was > 80 nM and 83 nM.

For `CCC(C)(C)c1ccc(OCCCN2CCCCC2)cc1` [DL77], the inhibition constant (Ki) on hH3R was 0.037 µM. The 50% inhibitory concentration (IC50) in the data set with hMAO B is 0.019 µM.

Turning to `C[C@H](NCc1ccc(OCc2cccc(F)c2)cc1)C(N)=O` [Safinamide, reference compound], on MAO B, the “effect of 30 min preincubation on inhibition (preincubated vs non-preincubated)” value was “did not show differences between the variants” and the “reversibility of MAO B inhibition” value is listed as “reversible inhibition”. For the same molecule, on human MAO B (hMAO B) [6], the “Affinity (free enzyme vs enzyme-substrate complex)” value was “Free enzyme > enzyme-substrate complex”; the “Mode of inhibition from kinetic values and LB plot” value is recorded as “Mixed mode”; the “Lines on LB plot” value was “Lines intersect to the left of y-axis and above x-axis”; the “app. KM” value was “↑ curvilinearly with ↑ [I]”. Further, on human MAO B (hMAO B) [6], the “app. Vmax” value is “↓ curvilinearly with ↑ [I]” and the “app. Vmax/app. KM” value is “↓ curvilinearly with ↑ [I]”.

As to `Cn1c(=O)c2c(ncn2C)n(C)c1=O` [caffeine, reference compound], the “Pe (×10^−6cm/s) ± SD” value in [5] is recorded as 15.1 ×10^−6cm/s.

For `O=C(c1ccc(OCCCc2cnc[nH]2)cc1)C1CC1` [ciproxifan], on hH3R, the Ki was 0.046 µM. In addition, the half-maximal inhibitory concentration (IC50) in the data set with hMAO B is 2 µM.
